Source: PubChem BioAssay (NCI)
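In this assay, cells in 96-well plates receive the compound at five concentrations for 48 hours. Endpoints are linearly interpolated between the surrounding concentrations. TGI marks complete inhibition of growth.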

Key:
Test in all cases: DTP human tumour cell line panel, 48 h
786-0 renal = test system: 786-0 renal
A498 renal = test system: A498 renal
A549 NSCLC = test system: A549 NSCLC
ACHN renal = test system: ACHN renal
CAKI-1 renal = test system: CAKI-1 renal
CCRF-CEM leukemia = test system: CCRF-CEM leukemia
COLO 205 colon = test system: COLO 205 colon
DLD-1 colon = test system: DLD-1 colon
DMS 114 small cell lung = test system: DMS 114 small cell lung
EKVX NSCLC = test system: EKVX NSCLC
HCC-2998 colon = test system: HCC-2998 colon
HCT-15 colon = test system: HCT-15 colon
HL-60(TB) leukemia = test system: HL-60(TB) leukemia
HOP-18 NSCLC = test system: HOP-18 NSCLC
HOP-62 NSCLC = test system: HOP-62 NSCLC
HOP-92 NSCLC = test system: HOP-92 NSCLC
HT29 colon = test system: HT29 colon
IGROV1 ovarian = test system: IGROV1 ovarian
K-562 leukemia = test system: K-562 leukemia
KM20L2 colon = test system: KM20L2 colon
LXFL 529 NSCLC = test system: LXFL 529 NSCLC
M14 melanoma = test system: M14 melanoma
M19-MEL melanoma = test system: M19-MEL melanoma
MALME-3M melanoma = test system: MALME-3M melanoma
MOLT-4 leukemia = test system: MOLT-4 leukemia
NCI-H226 lung = test system: NCI-H226 lung
NCI-H23 lung = test system: NCI-H23 lung
NCI-H460 lung = test system: NCI-H460 lung
OVCAR-3 ovarian = test system: OVCAR-3 ovarian
OVCAR-4 ovarian = test system: OVCAR-4 ovarian
OVCAR-5 ovarian = test system: OVCAR-5 ovarian
OVCAR-8 ovarian = test system: OVCAR-8 ovarian
RPMI-8226 leukemia = test system: RPMI-8226 leukemia
RXF 393 renal = test system: RXF 393 renal
RXF-631 renal = test system: RXF-631 renal
SF-268 CNS = test system: SF-268 CNS
SF-295 CNS = test system: SF-295 CNS
SF-539 CNS = test system: SF-539 CNS
SK-MEL-28 melanoma = test system: SK-MEL-28 melanoma
SK-MEL-5 melanoma = test system: SK-MEL-5 melanoma
SK-OV-3 ovarian = test system: SK-OV-3 ovarian
SN12C renal = test system: SN12C renal
SNB-19 CNS = test system: SNB-19 CNS
SNB-78 CNS = test system: SNB-78 CNS
SW-620 colon = test system: SW-620 colon
TK-10 renal = test system: TK-10 renal
U251 CNS = test system: U251 CNS
UACC-257 melanoma = test system: UACC-257 melanoma
UACC-62 melanoma = test system: UACC-62 melanoma
UO-31 renal = test system: UO-31 renal
XF 498 CNS = test system: XF 498 CNS
DMS 273 small cell lung = test system: DMS 273 small cell lung
HCT-116 colon = test system: HCT-116 colon
KM12 colon = test system: KM12 colon
LOX IMVI melanoma = test system: LOX IMVI melanoma
SK-MEL-2 melanoma = test system: SK-MEL-2 melanoma
SNB-75 CNS = test system: SNB-75 CNS

COC(=O)C12C3C4C1C1C2C3C41I (stereo not drawn)
TGI (786-0 renal): > 100 µM | TGI (A498 renal): > 100 µM | TGI (A549 NSCLC): > 100 µM | TGI (ACHN renal): > 100 µM | TGI (CAKI-1 renal): > 100 µM | TGI (CCRF-CEM leukemia): > 100 µM | TGI (COLO 205 colon): > 100 µM | TGI (DLD-1 colon): > 100 µM | TGI (DMS 114 small cell lung): > 100 µM | TGI (EKVX NSCLC): > 100 µM | TGI (HCC-2998 colon): > 100 µM | TGI (HCT-15 colon): > 100 µM | TGI (HL-60(TB) leukemia): > 100 µM | TGI (HOP-18 NSCLC): > 100 µM | TGI (HOP-62 NSCLC): > 100 µM | TGI (HOP-92 NSCLC): > 100 µM | TGI (HT29 colon): > 100 µM | TGI (IGROV1 ovarian): > 100 µM | TGI (K-562 leukemia): > 100 µM | TGI (KM20L2 colon): > 100 µM | TGI (LXFL 529 NSCLC): > 100 µM | TGI (M14 melanoma): > 100 µM | TGI (M19-MEL melanoma): > 100 µM | TGI (MALME-3M melanoma): > 100 µM | TGI (MOLT-4 leukemia): > 100 µM | TGI (NCI-H226 lung): > 100 µM | TGI (NCI-H23 lung): > 100 µM | TGI (NCI-H460 lung): > 100 µM | TGI (OVCAR-3 ovarian): > 100 µM | TGI (OVCAR-4 ovarian): > 100 µM | TGI (OVCAR-5 ovarian): > 100 µM | TGI (OVCAR-8 ovarian): > 100 µM | TGI (RPMI-8226 leukemia): > 100 µM | TGI (RXF 393 renal): > 100 µM | TGI (RXF-631 renal): > 100 µM | TGI (SF-268 CNS): > 100 µM | TGI (SF-295 CNS): > 100 µM | TGI (SF-539 CNS): > 100 µM | TGI (SK-MEL-28 melanoma): > 100 µM | TGI (SK-MEL-5 melanoma): > 100 µM | TGI (SK-OV-3 ovarian): > 100 µM | TGI (SN12C renal): > 100 µM | TGI (SNB-19 CNS): > 100 µM | TGI (SNB-78 CNS): > 100 µM | TGI (SW-620 colon): > 100 µM | TGI (TK-10 renal): > 100 µM | TGI (U251 CNS): > 100 µM | TGI (UACC-257 melanoma): > 100 µM | TGI (UACC-62 melanoma): > 100 µM | TGI (UO-31 renal): > 100 µM | TGI (XF 498 CNS): > 100 µM

CC(C)(C)N=CN1CCC(C(c2ccccc2)c2ccccc2)CC1
TGI (786-0 renal): > 100 µM | TGI (A498 renal): > 100 µM | TGI (A549 NSCLC): > 100 µM | TGI (ACHN renal): > 100 µM | TGI (CAKI-1 renal): > 100 µM | TGI (COLO 205 colon): 34.2 µM | TGI (DLD-1 colon): > 100 µM | TGI (DMS 114 small cell lung): > 100 µM | TGI (DMS 273 small cell lung): > 100 µM | TGI (EKVX NSCLC): > 100 µM | TGI (HCT-116 colon): > 100 µM | TGI (HCT-15 colon): > 100 µM | TGI (HOP-18 NSCLC): > 100 µM | TGI (HOP-62 NSCLC): > 100 µM | TGI (HOP-92 NSCLC): > 100 µM | TGI (HT29 colon): 56.5 µM | TGI (IGROV1 ovarian): > 100 µM | TGI (K-562 leukemia): > 100 µM | TGI (KM12 colon): > 100 µM | TGI (KM20L2 colon): 32.2 µM | TGI (LOX IMVI melanoma): > 100 µM | TGI (M19-MEL melanoma): > 100 µM | TGI (MALME-3M melanoma): 35.6 µM | TGI (NCI-H23 lung): > 100 µM | TGI (NCI-H460 lung): > 100 µM | TGI (OVCAR-3 ovarian): > 100 µM | TGI (OVCAR-4 ovarian): > 100 µM | TGI (OVCAR-5 ovarian): > 100 µM | TGI (OVCAR-8 ovarian): > 100 µM | TGI (RPMI-8226 leukemia): > 100 µM | TGI (RXF 393 renal): 98.7 µM | TGI (SF-268 CNS): > 100 µM | TGI (SF-295 CNS): > 100 µM | TGI (SF-539 CNS): > 100 µM | TGI (SK-MEL-2 melanoma): > 100 µM | TGI (SK-MEL-28 melanoma): > 100 µM | TGI (SK-MEL-5 melanoma): > 100 µM | TGI (SN12C renal): > 100 µM | TGI (SNB-19 CNS): > 100 µM | TGI (SNB-75 CNS): > 100 µM | TGI (SNB-78 CNS): > 100 µM | TGI (SW-620 colon): > 100 µM | TGI (TK-10 renal): > 100 µM | TGI (U251 CNS): > 100 µM | TGI (UACC-257 melanoma): > 100 µM | TGI (UACC-62 melanoma): > 100 µM | TGI (XF 498 CNS): > 100 µM
